Experimental data as given in ChEMBL document CHEMBL1158982, “Chemical studies on Mexican plants used in traditional medicine, XXI. Ratibinolide II, a new sesquiterpene lactone from Ratibida latipalearis” (J Nat Prod, 1991).
Converted amounts (≈) assume the structure as drawn.

Experiment: Toxicity against brine shrimp
Assay type: organism-based
Conditions: artemia, in vivo

`C=C1C(=O)O[C@H]2[C@H]1CC[C@@]1(C)[C@@H](O)C=C[C@@]3(C)O[C@]231` [RATIBINOLIDE II] gave an LC50 of 69.5 µg/mL (≈ 265 µM).
